Where two headings read alike, the source gives them in different places.

The nature of series [1]: Pharmacokinetic (bioavailability) study of ibuprofen + ketoprofen nasal spray in healthy adult human subjects, plasma by LC-MS/MS. The protocol: Pharmacokinetic study to evaluate the bioavailability of the pharmaceutical composition prepared according to the present disclosure.
Blood samples were centrifuged at about 4000 rpm for 10 minutes at 4±2° C. to separate the plasma. The resulting plasma was equally transferred into 2. These aliquots were stored frozen, upright in a freezer within 90 minutes of blood collection time of each sample at a temperature of −70° C. […] until they were analyzed.
Sample values below the LLOQ were reported as Below Quantification Limit (BQL). Pharmacokinetic parameters were calculated using Phoenix® WinNonlin® software (version: 8.3). The following parameters were calculated:
Primary pharmacokinetic parameters: Cmax, AUC0-t and AUC0-∞ Secondary pharmacokinetic parameters: tmax, t1/2, Kel and AUC_% Extrap_obs.

For series [2] the following is noted: cited from earlier work.
For series [3] the following is noted: topical sustained release composition, at three hours; cited from earlier work.

Turning to `CC(C)Cc1ccc(C(C)C(=O)O)cc1` (stereo not drawn) [ibuprofen], in series [1] (human, in vivo, inhaled or intranasal, AUC0-∞ range over the dose range of the composition, intranasal, dosage unit 0.4-8 mg ibuprofen and 0.025-0.48 mg ketoprofen), the total exposure AUC(0-inf) – broadly, the area under the concentration-time curve extrapolated to infinity – is 133 to 1920 ng·h/mL. In series [1] (human, in vivo, inhaled or intranasal, plasma Cmax range over the dose range of the composition, intranasal, dosage unit 0.4-8 mg ibuprofen and 0.025-0.48 mg ketoprofen), the Cmax (usually the peak of the concentration-time curve) was in the range of 41.4 to 828 ng/mL. In series [1] (human, in vivo, inhaled or intranasal, plasma Cmax, intranasal, 8 sprays (100 μL each), printed as equivalent to 1.816 mg ibuprofen and 0.24 mg ketoprofen), the highest concentration (Cmax) came to 165 ng/mL. Also, the “Cmax lower than expected Cmax of minimum approved oral dose” value in series [1] (intranasal 8 sprays vs oral 200 mg ibuprofen / 12.5 mg ketoprofen) is given as “approximately 100 times”. Further, in series [2] (oral ibuprofen 200 mg, as reported in the literature), the “expected Cmax for the minimum approved oral dose” value is “approximately 17.3 μg/mL”. In series [2] (oral ibuprofen, 400 mg), the maximum plasma concentration is 32.8 µg/mL and the “time of maximum plasma concentration” value is 90 min. Moreover, in series [2] (oral ibuprofen, dose 100 mg), the peak plasma concentration was 9.5 µg/mL and the “time of peak plasma concentration” value was 116 min.
On to `CC(C(=O)O)c1cccc(C(=O)c2ccccc2)c1` (stereo not drawn) [ketoprofen], for which, in series [2] (oral ketoprofen, dose 50 mg), the peak plasma concentration is 2.6 µg/mL and the “time of peak plasma concentration” value is 134 min. For the same compound, the “peak plasma concentration of ketoprofen” value in series [3] was “at most 450 ng/ml”.
